Test results reported in ChEMBL document CHEMBL1201862, “PubChem BioAssay data set” (2004).
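Compound exposure: 48 hours, 5 concentrations, 96-well plates. GI50: concentration for 50% inhibition of growth.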 Calls of active or inactive are those of the source. Cut-off read from the data, not from the text of the source: active = GI50 up to about 1.1 µM and inactive = higher.

Tests used:
Assay in all cases: NCI tumour cell line growth inhibition, 48 h
[1] = tested on: 786-0
[2] = tested on: A549
[3] = tested on: HCT-15
[4] = tested on: HOP-62
[5] = tested on: Hs-578T
[6] = tested on: K562
[7] = tested on: KM12
[8] = tested on: M14
[9] = tested on: MCF7
[10] = tested on: MDA-MB-435
[11] = tested on: MOLT-4
[12] = tested on: NCI-H460
[13] = tested on: RPMI-8226
[14] = tested on: RXF 393
[15] = tested on: SF-268
[16] = tested on: SF-539
[17] = tested on: SK-MEL-2
[18] = tested on: SK-MEL-5
[19] = tested on: SK-OV-3
[20] = tested on: U-251

SMILES | GI50 [1] | GI50 [2] | GI50 [3] | GI50 [4] | GI50 [5] | GI50 [6] | GI50 [7] | GI50 [8] | GI50 [9] | GI50 [10] | GI50 [11] | GI50 [12] | GI50 [13] | GI50 [14] | GI50 [15] | GI50 [16] | GI50 [17] | GI50 [18] | GI50 [19] | GI50 [20]
Nc1nncs1 | 4080 µM (inactive) | 942 µM (inactive) | 853 µM | 724 µM (inactive) | 1620 µM (inactive) | 1320 µM (inactive) | 1940 µM (inactive) | 1580 µM (inactive) | 2480 µM (inactive) | 1630 µM (inactive) | 695 µM (inactive) | 692 µM (inactive) | 991 µM (inactive) | 2930 µM (inactive) | 3950 µM (inactive) | 3560 µM (inactive) | > 5000 µM (inactive) | 2360 µM (inactive) | 151 µM (inactive) | 3100 µM (inactive)
O=C(O)c1cc2ccccc2c(/N=N/c2ccc(S(=O)(=O)O)cc2)c1O | > 100 µM (inactive) | > 100 µM (inactive) | > 100 µM | > 100 µM (inactive) | > 100 µM (inactive) | > 100 µM (inactive) | > 100 µM (inactive) | > 100 µM (inactive) | > 100 µM (inactive) | > 100 µM (inactive) | > 100 µM (inactive) | > 100 µM (inactive) | > 100 µM (inactive) | > 100 µM (inactive) | > 100 µM (inactive) | > 100 µM (inactive) | > 100 µM (inactive) | > 100 µM (inactive) | > 100 µM (inactive) | > 100 µM (inactive)
N#Cc1c(C#N)c(SSc2c(C#N)c(C#N)c(N)n2-c2cccc3ccccc23)n(-c2cccc3ccccc23)c1N | 1.98 µM (inactive) | 19.9 µM (inactive) | 1.98 µM | 21.7 µM (inactive) | 24.6 µM (inactive) | 3.51 µM (inactive) | 41.6 µM (inactive) | 3.08 µM (inactive) | 3.47 µM (inactive) | 8.77 µM (inactive) | 2.63 µM (inactive) | 46.8 µM (inactive) | 2.76 µM (inactive) | 6.08 µM (inactive) | 14.4 µM (inactive) | 15.7 µM (inactive) | 15.3 µM (inactive) | 20.2 µM (inactive) | 24.1 µM (inactive) | 19.7 µM (inactive)
Cc1cc(C)c2c(=O)n(CN3CCC(O)(c4ccccc4)CC3)sc2n1 | 17.1 µM (inactive) | > 100 µM (inactive) | 34.7 µM | 34.7 µM (inactive) | 40 µM (inactive) | 24 µM (inactive) | > 100 µM (inactive) | 50 µM (inactive) | 47.9 µM (inactive) | 20.4 µM (inactive) | 28.1 µM (inactive) | 29 µM (inactive) | 23.4 µM (inactive) | 19.8 µM (inactive) | 31.1 µM (inactive) | 21.2 µM (inactive) | > 100 µM (inactive) | 97.3 µM (inactive) | > 100 µM (inactive) | 77.8 µM (inactive)
COc1cc2cccc(N)c2cc1OC | > 100 µM (inactive) | > 100 µM (inactive) | > 100 µM | > 100 µM (inactive) | > 100 µM (inactive) | > 100 µM (inactive) | > 100 µM (inactive) | > 100 µM (inactive) | > 100 µM (inactive) | > 100 µM (inactive) | > 100 µM (inactive) | > 100 µM (inactive) | > 100 µM (inactive) | > 100 µM (inactive) | > 100 µM (inactive) | > 100 µM (inactive) | > 100 µM (inactive) | > 100 µM (inactive) | > 100 µM (inactive) | > 100 µM (inactive)
CCCCCCCCCCCCCCCCNC(=O)/C(=C\c1ccc(Cl)c(Cl)c1)NC(=O)c1ccccc1 | 19.4 µM (inactive) | 43.6 µM (inactive) | 30.8 µM | 21.4 µM (inactive) | 42.8 µM (inactive) | 22 µM (inactive) | 52.6 µM (inactive) | > 100 µM (inactive) | 25.9 µM (inactive) | > 100 µM (inactive) | 15.5 µM (inactive) | 36.6 µM (inactive) | 24.4 µM (inactive) | 15.7 µM (inactive) | 46.9 µM (inactive) | 16.5 µM (inactive) | > 100 µM (inactive) | > 100 µM (inactive) | 53 µM (inactive) | 35.4 µM (inactive)
N#CCN1CCN(CC#N)CCN(CC#N)CCN(CC#N)CC1 | > 100 µM (inactive) | > 100 µM (inactive) | – | > 100 µM (inactive) | > 100 µM (inactive) | > 100 µM (inactive) | > 100 µM (inactive) | > 100 µM (inactive) | 43.1 µM (inactive) | > 100 µM (inactive) | > 100 µM (inactive) | 53.3 µM (inactive) | 38.3 µM (inactive) | 79.6 µM (inactive) | > 100 µM (inactive) | > 100 µM (inactive) | > 100 µM (inactive) | > 100 µM (inactive) | 46.8 µM (inactive) | > 100 µM (inactive)
CSc1ccc(-c2cc(-c3nc4ccccc4[nH]3)nc(N)c2C#N)cc1 | 26.1 µM (inactive) | 23.1 µM (inactive) | 20.2 µM | 19.1 µM (inactive) | 24.7 µM (inactive) | 18.4 µM (inactive) | 21 µM (inactive) | 16.8 µM (inactive) | 15.6 µM (inactive) | 17.7 µM (inactive) | 8.39 µM (inactive) | 22 µM (inactive) | 21.4 µM (inactive) | 2.58 µM (inactive) | 17.3 µM (inactive) | 23.6 µM (inactive) | 16.9 µM (inactive) | 13.3 µM (inactive) | 33 µM (inactive) | –
O=C1OC(c2ccc([N+](=O)[O-])cc2)=N/C1=C\c1ccc(O)cc1 | > 100 µM (inactive) | > 100 µM (inactive) | > 100 µM | > 100 µM (inactive) | > 100 µM (inactive) | > 100 µM (inactive) | > 100 µM (inactive) | > 100 µM (inactive) | > 100 µM (inactive) | > 100 µM (inactive) | > 100 µM (inactive) | > 100 µM (inactive) | > 100 µM (inactive) | > 100 µM (inactive) | > 100 µM (inactive) | > 100 µM (inactive) | > 100 µM (inactive) | > 100 µM (inactive) | > 100 µM (inactive) | > 100 µM (inactive)
COc1cc(/C=C/C(=O)Oc2ccccc2)ccc1C(=O)O/C=C/c1ccccc1 | > 100 µM (inactive) | > 100 µM (inactive) | > 100 µM | > 100 µM (inactive) | > 100 µM (inactive) | > 100 µM (inactive) | > 100 µM (inactive) | > 100 µM (inactive) | > 100 µM (inactive) | > 100 µM (inactive) | > 93.3 µM (inactive) | > 100 µM (inactive) | > 100 µM (inactive) | > 100 µM (inactive) | > 100 µM (inactive) | > 100 µM (inactive) | > 100 µM (inactive) | > 100 µM (inactive) | > 100 µM (inactive) | > 100 µM (inactive)
C[C@]12CC[C@H]3[C@@H](CC=C4C[C@@H](O)CC[C@@]43C)[C@@H]1C/C(=C\c1ccncc1)[C@@H]2O | 21.1 µM (inactive) | 19.7 µM (inactive) | 20.9 µM | 29.9 µM (inactive) | 39.3 µM (inactive) | 15.8 µM (inactive) | 15.9 µM (inactive) | 16.5 µM (inactive) | 23 µM (inactive) | 19.7 µM (inactive) | 9.77 µM (inactive) | 15.1 µM (inactive) | 9.91 µM (inactive) | 18.1 µM (inactive) | 21.2 µM (inactive) | 16.9 µM (inactive) | 21.1 µM (inactive) | 8.51 µM (inactive) | 28.3 µM (inactive) | 16.5 µM (inactive)
CC1(C)CN(c2ccccc2)C(=O)C1OC(=O)[C@@]1(C)C[C@@H]2C=C[C@H]1C2 (some centres not stated) | 21.8 µM (inactive) | 29.6 µM (inactive) | 22.1 µM | 22.4 µM (inactive) | 31 µM (inactive) | 6.15 µM (inactive) | 21.7 µM (inactive) | 22 µM (inactive) | 24.4 µM (inactive) | 20.2 µM (inactive) | 38.2 µM (inactive) | 23 µM (inactive) | 12.3 µM (inactive) | 17.9 µM (inactive) | 27.5 µM (inactive) | 23.4 µM (inactive) | 17.8 µM (inactive) | 14.9 µM (inactive) | 35.1 µM (inactive) | 19.2 µM (inactive)
CC(=O)OC12c3ccccc3-c3ccccc3C1C(C(=O)O)C2C(=O)O (configuration not stated) | > 10 µM (inactive) | – | > 10 µM | > 10 µM (inactive) | > 10 µM (inactive) | > 10 µM (inactive) | > 10 µM (inactive) | > 10 µM (inactive) | > 10 µM (inactive) | 3.52 µM (inactive) | > 10 µM (inactive) | > 10 µM (inactive) | > 10 µM (inactive) | > 10 µM (inactive) | > 10 µM (inactive) | > 10 µM (inactive) | > 10 µM (inactive) | > 10 µM (inactive) | > 10 µM (inactive) | > 10 µM (inactive)
c1ccc([P+](c2ccccc2)(c2ccccc2)c2ccc([P+](c3ccccc3)(c3ccccc3)c3ccccc3)c3ccccc23)cc1 | > 100 µM (inactive) | 70.1 µM (inactive) | > 100 µM | > 100 µM (inactive) | 47.8 µM (inactive) | 29.6 µM (inactive) | 34.4 µM (inactive) | > 100 µM (inactive) | 47 µM (inactive) | 84.3 µM (inactive) | > 100 µM (inactive) | 61.4 µM (inactive) | 57.1 µM (inactive) | > 100 µM (inactive) | > 100 µM (inactive) | 63.7 µM (inactive) | > 100 µM (inactive) | 62.1 µM (inactive) | > 100 µM (inactive) | 35.7 µM (inactive)
